Results on 27 molecules are retold here after patent publication US10144706B2 (BRISTOL-MYERS SQUIBB COMPANY, priority 2016, dated 2018).

Read-outs that look alike come from different tables or passages of the source.

For the assay, the target named is T1, PD-1/PD-L1 interaction (PD-1-Ig / PD-L1-His) (Homo sapiens, UniProt Q9NZQ7).
T1 construct: hPDL1(18-239)-TVMV-His; TVMV protease site linker (C); made in house; host or cells: HEK293T
Kind of assay: PD-1/PD-L1 Homogenous Time-Resolved Fluorescence (HTRF) binding assay. The conditions noted are these: PD-L1-His 10 nM, PD-1-Ig 20 nM, read-out: Range or IC50. The procedure, abridged: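 HTRF detection used 1 nM europium-cryptate anti-Ig and 20 nM APC anti-His. Compounds first saw 10 nM PD-L1-His for 15 min, and 20 nM PD-1-Ig was then added for another 15 min. Buffer was dPBS plus 0.1% BSA and 0.05% Tween-20. All concentrations are final.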
For orientation: In TR-FRET formats the signal depends on donor and acceptor labels being close together.

T1 sequence (Q9NZQ7 with tags, fused parts or gaps): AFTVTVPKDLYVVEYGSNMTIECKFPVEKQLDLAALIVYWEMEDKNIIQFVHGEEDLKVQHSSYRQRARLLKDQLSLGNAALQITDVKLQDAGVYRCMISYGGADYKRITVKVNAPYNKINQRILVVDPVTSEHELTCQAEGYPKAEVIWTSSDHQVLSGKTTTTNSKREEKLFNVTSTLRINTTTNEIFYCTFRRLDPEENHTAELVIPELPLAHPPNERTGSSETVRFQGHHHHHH

By IC50 is commonly meant the concentration that gives 50% inhibition. For the molecule `Cc1c(OCCCN[C@@H](CO)Cc2ncn(C)c2Cl)cccc1-c1cccc(OCCCN2CC[C@@H](O)C2)c1C` [Example 2071, (R)-1-(3-((3′-(3-(((R)-1-(5-chloro-1-methyl-1H-imidazol-4-yl)-3-hydroxypropan-2-yl)amino)propoxy)-2,2′-dimethyl-[1,1′-biphenyl]-3-yl)oxy)propyl)pyrrolidin-3-ol], the IC50 (IC50 range class) fell in the range of 90.1 to 1000 nM.
On the same count and under the same terms, next, `Cc1c(OCCCN(CCO)Cc2ccccc2)cccc1-c1cccc(OCCCN2CC[C@@H](O)C2)c1C` [Example 2072, (R)-1-(3-((3′-(3-(benzyl(2-hydroxyethyl)amino)propoxy)-2,2′-dimethyl-[1,1′-biphenyl]-3-yl)oxy)propyl)pyrrolidin-3-ol]: 90.1 to 1000 nM; `Cc1c(OCCCN(CCO)CCC(C)C)cccc1-c1cccc(OCCCN2CC[C@@H](O)C2)c1C` [Example 2073, (R)-1-(3-((3′-(3-((2-hydroxyethyl)(isopentyl)amino)propoxy)-2,2′-dimethyl-[1,1′-biphenyl]-3-yl)oxy)propyl)pyrrolidin-3-ol]: 20.1 to 90 nM; `Cc1c(OCCCN2CC[C@@H](O)C2)cccc1-c1cccc(OCCCN2CCC[C@@H](C(=O)O)C2)c1C` [Example 2074, (R)-1-(3-((3′-(3-((R)-3-hydroxypyrrolidin-1-yl)propoxy)-2,2′-dimethyl-[1,1′-biphenyl]-3-yl)oxy)propyl)piperidine-3-carboxylic acid]: 90.1 to 1000 nM.
With `Cc1c(OCCCNC[C@@H](O)c2ccc(F)c(Cl)c2)cccc1-c1cccc(OCCCN2CC[C@@H](O)C2)c1C` [Example 2075, (R)-1-(3-((3′-(3-(((S)-2-(3-chloro-4-fluorophenyl)-2-hydroxyethyl)amino)propoxy)-2,2′-dimethyl-[1,1′-biphenyl]-3-yl)oxy)propyl)pyrrolidin-3-ol], the IC50 (IC50 range class) fell in the range of 20.1 to 90 nM.
For the molecule `Cc1c(OCCCN(C)CCC(N)=O)cccc1-c1cccc(OCCCN(C)CCC(N)=O)c1C` [Example 2076], the IC50 (IC50 range class) was 20.1 to 90 nM.
Same read-out and setting: for `Cc1c(OCCCN(CCO)CCO)cccc1-c1cccc(OCCCN(CCO)CCO)c1C` [Example 2077, 2,2′,2″,2′″-((((2,2′-dimethyl-[1,1′-biphenyl]-3,3′-diyl)bis(oxy))bis(propane-3,1-diyl))bis(azanetriyl))tetrakis(ethan-1-ol)] the value was 20.1 to 90 nM; for `Cc1c(OCCCNC[C@H](O)CO)cccc1-c1cccc(OCCCNC[C@H](O)CO)c1C` [Example 2079, (2S,2′S)-3,3′-((((2,2′-dimethyl-[1,1′-biphenyl]-3,3′-diyl)bis(oxy))bis(propane-3,1-diyl))bis(azanediyl))bis(propane-1,2-diol)], 0.04 to 20 nM.
On to `Cc1c(OCCCNCCCO)cccc1-c1cccc(OCCCNC[C@H](O)CO)c1C` [Example 2080, (S)-3-((3-((3′-(3-((3-hydroxypropyl)amino)propoxy)-2,2′-dimethyl-[1,1′-biphenyl]-3-yl)oxy)propyl)amino)propane-1,2-diol], for which the IC50 (IC50 range class) is 0.04 to 20 nM.
Turning to `Cc1c(OCCCNC[C@H](O)CO)cccc1-c1cccc(OCCCN2CCC[C@H](C(=O)O)C2)c1C` [Example 2081, (S)-1-(3-((3′-(3-(((S)-2,3-dihydroxypropyl)amino)propoxy)-2,2′-dimethyl-[1,1′-biphenyl]-3-yl)oxy)propyl)piperidine-3-carboxylic acid], the IC50 (IC50 range class) was 20.1 to 90 nM.
As for `Cc1c(OCCCN2CCC[C@H](C(=O)O)C2)cccc1-c1cccc(OCCCN2CCC[C@H](C(=O)O)C2)c1C` [Example 2082, (3S,3′S)-1,1′-(((2,2′-dimethyl-[1,1′-biphenyl]-3,3′-diyl)bis(oxy))bis(propane-3,1-diyl))bis(piperidine-3-carboxylic acid)], the half-inhibitory concentration (IC50) (IC50 range class) fell in the range of 90.1 to 1000 nM.
Consider `Cc1c(OCCCN2CC[C@H](O)[C@@H](O)C2)cccc1-c1cccc(OCCCN2CC[C@H](O)[C@@H](O)C2)c1C` [Example 2084, (3S,3′S,4S,4′S)-1,1′-(((2,2′-dimethyl-[1,1′-biphenyl]-3,3′-diyl)bis(oxy))bis(propane-3,1-diyl))bis(piperidine-3,4-diol)], for which the IC50 (IC50 range class) lay within 20.1 to 90 nM.
For `Cc1c(OCCCN2CCN(CCO)CC2)cccc1-c1cccc(OCCCN2CCN(CCO)CC2)c1C` [Example 2085, 2,2′-((((2,2′-dimethyl-[1,1′-biphenyl]-3,3′-diyl)bis(oxy))bis(propane-3,1-diyl))bis(piperazine-4,1-diyl))bis(ethan-1-ol)], the IC50 (IC50 range class) lay in the range of 90.1 to 1000 nM.
Take `Cc1c(OCCCNCCc2cccnc2)cccc1-c1cccc(OCCCNCCc2cccnc2)c1C` [Example 2086, 3,3′-((2,2′-dimethyl-[1,1′-biphenyl]-3,3′-diyl)bis(oxy))bis(N-(2-(pyridin-3-yl)ethyl)propan-1-amine)]: under “IC50 range class”, the IC50 was 0.04 to 20 nM.
As for `Cc1c(OCCCN2CC(N(C)C)C2)cccc1-c1cccc(OCCCN2CC(N(C)C)C2)c1C` [Example 2087, 1,1′-(((2,2′-dimethyl-[1,1′-biphenyl]-3,3′-diyl)bis(oxy))bis(propane-3,1-diyl))bis(N,N-dimethylazetidin-3-amine)], where the note is “IC50 range class”, the IC50 fell in the range of 90.1 to 1000 nM.
Still for that read-out and setting: for `Cc1c(OCCCN[C@@H]2C[C@H](CO)[C@@H](O)[C@H]2O)cccc1-c1cccc(OCCCN[C@@H]2C[C@H](CO)[C@@H](O)[C@H]2O)c1C` [Example 2088, (1S,1′S,2R,2′R,3R,3′R,5R,5′R)-5,5′-((((2,2′-dimethyl-[1,1′-biphenyl]-3,3′-diyl)bis(oxy))bis(propane-3,1-diyl))bis(azanediyl))bis(3-(hydroxymethyl)cyclopentane-1,2-diol)] the value was 0.04 to 20 nM.
Consider `Cc1c(OCCCNCCc2ccncc2)cccc1-c1cccc(OCCCN[C@@H]2C[C@H](CO)[C@@H](O)[C@H]2O)c1C` [Example 2089, (1R,2S,3R,5R)-3-((3-((2,2′-dimethyl-3′-(3-((2-(pyridin-4-yl)ethyl)amino)propoxy)-[1,1′-biphenyl]-3-yl)oxy)propyl)amino)-5-(hydroxymethyl)cyclopentane-1,2-diol], for which the IC50 (numeric IC50) was 7.1 nM.
Take `Cc1c(OCCCN(C)C2CC(O)C2)cccc1-c1cccc(OCCCN(C)C2CC(O)C2)c1C` (stereo not drawn) [Example 2090, 3,3′-((((2,2′-dimethyl-[1,1′-biphenyl]-3,3′-diyl)bis(oxy))bis(propane-3,1-diyl))bis(methylazanediyl))bis(cyclobutan-1-ol)]: the IC50 (IC50 range class) lay within 20.1 to 90 nM.
On the same count and under the same terms, for `Cc1c(OCCCN[C@@H](c2ccccc2)[C@H](O)CO)cccc1-c1cccc(OCCCN2CC[C@@H](O)C2)c1C` [Example 2091, (2S,3S)-3-((3-((3′-(3-((R)-3-hydroxypyrrolidin-1-yl)propoxy)-2,2′-dimethyl-[1,1′-biphenyl]-3-yl)oxy)propyl)amino)-3-phenylpropane-1,2-diol] the value was 20.1 to 90 nM; for `Cc1c(OCCCN2CC[C@@H](O)C2)cccc1-c1cccc(OCCCN2CCO[C@@H](CO)C2)c1C` [Example 2092, (R)-1-(3-((3′-(3-((R)-2-(hydroxymethyl)morpholino)propoxy)-2,2′-dimethyl-[1,1′-biphenyl]-3-yl)oxy)propyl)pyrrolidin-3-ol], 20.1 to 90 nM; for `Cc1c(OCCCN(C)CCCN(C)CCCOc2cccc(-c3cccc(OCCCN4CC[C@@H](O)C4)c3C)c2C)cccc1-c1cccc(OCCCN2CC[C@@H](O)C2)c1C` [Example 2093, (3R,3′R)-1,1′-((((((propane-1,3-diylbis(methylazanediyl))bis(propane-3,1-diyl))bis(oxy))bis(2,2′-dimethyl-[1,1′-biphenyl]-3′,3-diyl))bis(oxy))bis(propane-3,1-diyl))bis(pyrrolidin-3-ol)], 20.1 to 90 nM.
Still for that read-out and setting: for `COCC(O)CNCCCOc1cccc(-c2cccc(OCCCNCC(O)COC)c2C)c1C` (stereo not drawn) [Example 2094, 3,3′-((((2,2′-dimethyl-[1,1′-biphenyl]-3,3′-diyl)bis(oxy))bis(propane-3,1-diyl))bis(azanediyl))bis(1-methoxypropan-2-ol)] the value was 0.04 to 20 nM.
Regarding `Cc1c(OCCCN(C)CCOCCN(C)CCCOc2cccc(-c3cccc(OCCCN4CC[C@@H](O)C4)c3C)c2C)cccc1-c1cccc(OCCCN2CC[C@@H](O)C2)c1C` [Example 2095, (3R,3′R)-1,1′-(((((((oxybis(ethane-2,1-diyl))bis(methylazanediyl))bis(propane-3,1-diyl))bis(oxy))bis(2,2′-dimethyl-[1,1′-biphenyl]-3′,3-diyl))bis(oxy))bis(propane-3,1-diyl))bis(pyrrolidin-3-ol)], the IC50 (IC50 range class) lay within 20.1 to 90 nM.
The same measure, in the same setting: for `CNCCOCCN(C)CCCOc1cccc(-c2cccc(OCCCN3CC[C@@H](O)C3)c2C)c1C` [Example 2096, (R)-1-(3-((2,2′-dimethyl-3′-(3-(methyl(2-(2-(methylamino)ethoxy)ethyl)amino)propoxy)-[1,1′-biphenyl]-3-yl)oxy)propyl)pyrrolidin-3-ol] the value was 20.1 to 90 nM; for `Cc1c(OCCCN[C@H](CO)[C@H](O)c2ccccc2)cccc1-c1cccc(OCCCN[C@H](CO)[C@H](O)c2ccccc2)c1C` [Example 2097], 90.1 to 1000 nM.
As for `Cc1c(OCCCNC[C@H](O)CO)cccc1-c1cccc(OCCCN[C@H](CO)[C@H](O)c2ccccc2)c1C` [Example 2098, (S)-3-((3-((3′-(3-(((1R,2R)-1,3-dihydroxy-1-phenylpropan-2-yl)amino)propoxy)-2,2′-dimethyl-[1,1′-biphenyl]-3-yl)oxy)propyl)amino)propane-1,2-diol], where the note is “IC50 range class”, the IC50 was in the range of 0.04 to 20 nM.
Consider `Cc1c(OCCCN(Cc2cncc(C#N)c2)C[C@H](O)CO)cccc1-c1cccc(OCCCN(Cc2cncc(C#N)c2)C[C@H](O)CO)c1C` [Example 2099, 5,5′-(((((2,2′-dimethyl-[1,1′-biphenyl]-3,3′-diyl)bis(oxy))bis(propane-3,1-diyl))bis(((S)-2,3-dihydroxypropyl)azanediyl))bis(methylene))dinicotinonitrile], for which the IC50 (numeric IC50) was 1250 nM.
